In assay [1] the target is T1, wild type PKR (Homo sapiens, UniProt P30613). In words: PKR (wild type) enzyme AC50 assay, LDH/NADH-coupled, absorbance at 340 nm. The format is biochemical. The conditions noted are these: for EC50: Table 4, AC50, enzyme assay, read-out: PKR WT; for AC50: Table 2, enzyme assay, read-out: PKR WT AC50. Summed up: (§1)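 Human PKR, wild type or K410E/R510Q mutant (40-400 ng/well), preincubated 60 min at room temperature with compound (11-point 3-fold series from 100 μM, 1% DMSO) in Tris pH 7.5/KCl/MgCl2 buffer with PEP 0.1-0.5 mM, 180 μM NADH, LDH. ADP (0.2-1.65 mM) started the reaction; LDH-coupled NADH consumption followed at 340 nm.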
T1 sequence (P30613 whole entry): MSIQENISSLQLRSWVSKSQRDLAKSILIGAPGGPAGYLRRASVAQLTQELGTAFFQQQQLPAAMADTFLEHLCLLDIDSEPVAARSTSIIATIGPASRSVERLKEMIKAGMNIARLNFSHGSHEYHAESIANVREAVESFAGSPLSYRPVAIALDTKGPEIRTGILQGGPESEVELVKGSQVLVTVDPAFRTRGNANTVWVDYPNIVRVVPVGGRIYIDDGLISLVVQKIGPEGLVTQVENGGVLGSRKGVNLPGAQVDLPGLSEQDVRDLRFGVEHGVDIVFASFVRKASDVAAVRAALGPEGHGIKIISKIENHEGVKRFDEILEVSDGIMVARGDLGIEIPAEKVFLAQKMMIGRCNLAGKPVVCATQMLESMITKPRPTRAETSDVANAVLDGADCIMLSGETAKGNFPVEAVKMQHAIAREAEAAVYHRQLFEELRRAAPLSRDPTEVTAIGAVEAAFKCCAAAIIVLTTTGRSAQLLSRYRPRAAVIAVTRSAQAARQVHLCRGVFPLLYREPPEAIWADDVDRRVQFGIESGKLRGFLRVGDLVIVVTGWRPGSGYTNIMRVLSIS

Assay [2] deals with PKR K410E (Homo sapiens, UniProt P30613, K410E). In words: PKR mutant assay (K410E), AC50, LDH/NADH-coupled, absorbance at 340 nm. The format is biochemical. The conditions noted are these: for EC50: Table 4, AC50, enzyme assay; for AC50: Table 2, enzyme assay. The method, boiled down: as §1
PKR K410E, sequence (P30613 whole entry K410E): as the sequence (P30613 whole entry) above, with K410E counted along it
In assay [3] the target is PKR R510Q (Homo sapiens, UniProt P30613, R510Q). In words: PKR mutant assay (R510Q), AC50, LDH/NADH-coupled, absorbance at 340 nm. The conditions noted are these: for EC50: Table 4, AC50, enzyme assay, read-out: PK R510Q; for AC50: Table 2, enzyme assay, read-out: PK R510Q AC50. The format is biochemical. Summed up:
as §1

Assay [4] concerns the target T1, wild type PKR. Briefly: Cell based ATP assay in purified red blood cells (Cell-Titer-Glo). The conditions noted are these: overnight at 37° C., ATP levels. The arrangement: endogenous in cells; host or cells: purified red blood cells from healthy volunteers. The method, boiled down: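 RBCs from healthy human donors' K2EDTA blood were leukocyte-depleted by filtration and resuspended in AGAM (PBS, 1% glucose, adenine, mannitol). Cells at 1×10^7 cells/mL were incubated overnight at 37 °C with serially diluted compound at 0.1% DMSO, and ATP was read by Cell-Titer-Glo luminescence.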

Molecules are shown by their SMILES.

The AC50 is the midpoint of the concentration-response curve, whichever way the signal moves.

PKR R510Q, sequence (P30613 whole entry R510Q): as the sequence (P30613 whole entry) above, with R510Q counted along it

With `Cn1c2nc(Cc3csc(C(N)=O)n3)sc2c2cnn(Cc3cccc4[nH]ncc34)c(=O)c21` [Compound 206], the EC50 in assay [1] was above 800 nM; in assay [2], above 800 nM; in assay [3], above 800 nM; in assay [4] (Table 4, AC50, RBCs), above 1000 nM.
As to `Cn1c2nc(Cc3n[nH]cc3C(F)(F)F)sc2c2cnn(Cc3cccc4[nH]ncc34)c(=O)c21` [Compound 172], the AC50 in assay [1] is above 800 nM; in assay [2], above 800 nM; in assay [3] it was above 800 nM; in assay [4] (Table 2, RBCs), above 1000 nM.
With `Cn1cc(Cc2nc3c(s2)c2cnn(Cc4cccc5[nH]ncc45)c(=O)c2n3C)cn1` [Compound 186], the EC50 in assay [1] is above 800 nM; in assay [2], above 800 nM; in assay [3] it was 301 to 800 nM; in assay [4] (Table 4, AC50, RBCs), at most 1000 nM.
Consider `Cn1c2nc(C(C)(O)c3cc[nH]n3)sc2c2cnn(Cc3cccc4[nH]ncc34)c(=O)c21` (stereo not drawn) [Compound 162], for which the AC50 is below 300 nM in assay [1]; below 300 nM in assay [2]; below 300 nM in assay [3]; at most 1000 nM in assay [4] (Table 2, RBCs).
Turning to `Cn1c2nc(Cc3cc[nH]n3)sc2c2cnn(Cc3cccc4c3NS(=O)(=O)N4)c(=O)c21` [Compound 275], the EC50 in assay [1] was above 800 nM; in assay [2], above 800 nM; in assay [3], above 800 nM; in assay [4] (Table 4, AC50, RBCs), above 1000 nM.
`Cc1nc2c(s1)c1cnn(Cc3cccc([N+](=O)[O-])c3)c(=O)c1n2C` [Compound 47]: the AC50 in assay [1], in assay [2] and in assay [3] was above 800 nM throughout. The “Cell based ATP assay AC50” value in assay [4] (Table 2, RBCs) is reported as “No Fit”.
As for `Cn1ccc(Cn2ncc3c4sc(Cc5cccc6cn[nH]c56)nc4n(C)c3c2=O)n1` [Compound 258], the EC50 in assay [1] is below 300 nM; in assay [2], below 300 nM; in assay [3], below 300 nM; in assay [4] (Table 4, AC50, RBCs), at most 1000 nM.
Regarding `Cn1c2nc(Cc3cc[nH]n3)sc2c2cnn(Cc3ccccc3)c(=O)c21` [Compound 193], the EC50 in assay [1] was below 300 nM; in assay [2] it was below 300 nM; in assay [3], below 300 nM; in assay [4] (Table 4, AC50, RBCs), at most 1000 nM.
With `Cc1nc2c(s1)c1cnn(Cc3cccc4c3cnn4C)c(=O)c1n2C` [Compound 76], the AC50 in assay [1] is above 800 nM; in assay [2], below 300 nM; in assay [3], below 300 nM; in assay [4] (Table 2, RBCs), at most 1000 nM.
`COc1cccc(Cn2ncc3c4sc(S(=O)(=O)c5ccccc5)nc4n(C)c3c2=O)c1` [Compound 36]: the AC50 in assay [1] is above 800 nM; in assay [2] it was 301 to 800 nM; in assay [3], 301 to 800 nM; in assay [4] (Table 2, RBCs), above 1000 nM.
Take `C=CCn1ncc2c3sc(Cc4ccccn4)nc3n(C)c2c1=O` [Compound 398]: the EC50 in assay [1], in assay [2] and in assay [3] was above 800 nM throughout. Moreover, in assay [4] (Table 4, AC50, RBCs), the “Cell based ATP assay” value is reported as “No Fit”.
For the compound `Cn1c2nc(C(N)c3ccccc3)sc2c2cnn(Cc3cccc4[nH]ncc34)c(=O)c21` (stereo not drawn) [Compound 136], the AC50 in assay [1] was below 300 nM; in assay [2], below 300 nM; in assay [3], below 300 nM; in assay [4] (Table 2, RBCs) it was at most 1000 nM.
As to `C#CCn1ncc2c3sc(Cc4ccccn4)nc3n(C)c2c1=O` [Compound 404], the EC50 in assay [1] is below 300 nM; in assay [2] it was below 300 nM; in assay [3] it was below 300 nM; in assay [4] (Table 4, AC50, RBCs), at most 1000 nM.
On to `Cn1c2nc(Oc3ccn[nH]3)sc2c2cnn(Cc3cccc(N)n3)c(=O)c21` [Compound 396], for which the EC50 is below 300 nM in assay [1]; below 300 nM in assay [2]; below 300 nM in assay [3]; at most 1000 nM in assay [4] (Table 4, AC50, RBCs).
Regarding `Cn1c2nc(Cc3cc[nH]n3)sc2c2cnn(Cc3ccc4c(c3)OCCO4)c(=O)c21` [Compound 122], the AC50 in assay [1] was below 300 nM; in assay [2], below 300 nM; in assay [3], below 300 nM; in assay [4] (Table 2, RBCs), at most 1000 nM.
`Cn1c2nc(Cc3cc(F)[nH]n3)sc2c2cnn(Cc3cccc4[nH]ncc34)c(=O)c21` [Compound 234]: the EC50 in assay [1] was below 300 nM; in assay [2], below 300 nM; in assay [3], below 300 nM; in assay [4] (Table 4, AC50, RBCs), above 1000 nM.
Take `COC(=O)C(C(=O)OC)c1nc2c(s1)c1cnn(Cc3cccc4[nH]ncc34)c(=O)c1n2C` [Compound 113]: the AC50 in assay [1] was above 800 nM; in assay [2], above 800 nM; in assay [3], above 800 nM; in assay [4] (Table 2, RBCs) it was above 1000 nM.
As for `Cn1c2nc(Cc3cc[nH]n3)sc2c2cnn(Cc3ccc4scnc4c3)c(=O)c21` [Compound 237], the EC50 in assay [1] is below 300 nM; in assay [2], below 300 nM; in assay [3], below 300 nM; in assay [4] (Table 4, AC50, RBCs), at most 1000 nM.

For the origin of these results see patent US11957680B2, “Pyruvate kinase activators for use in treating blood disorders” (Agios Pharmaceuticals, Inc., priority 2017, dated 2024).
